# What was measured:
# KRas = target: T1, KRas (Homo sapiens, UniProt P01116, G12S); assay: CETSA in A549 cells ([…]°C stabilization at […]); type: cell-based
# T1 construct: endogenous, A549 cells
# HRasG60A = target: T2, HRasG60A (Homo sapiens, UniProt P01112, G60A); assay: SPR (steady-state); circular dichroism in support; type: binding
# T2 construct: gene HRAS
# T2 sequence (P01112 1-166 G60A): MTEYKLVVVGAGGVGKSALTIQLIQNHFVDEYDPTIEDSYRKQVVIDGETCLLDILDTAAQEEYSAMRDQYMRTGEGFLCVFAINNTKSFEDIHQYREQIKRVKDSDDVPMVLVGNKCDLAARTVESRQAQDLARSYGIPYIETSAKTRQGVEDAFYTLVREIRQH
compound,measurement,setting,value
"O=C1CSC2(CCN(CCCN3c4ccccc4Sc4ccc(Cl)cc43)CC2)N1 [NSC290956, 1-Thia-4,8-diazaspiro[4.5]decan-3-one,8-[3-(2-chloro-10H-phenothiazin-10-yl)propyl]]",CETSA in A549 cells (4-6°C stabilization at 25 μM),KRas,target engagement of NSC290956 in KRas-addicted H358 (KRasG12C) and A549 (KRasG12S) cell lines
same,Kd,HRasG60A,21.3 µM
